Laboratory results taken from US20150164916A1, “ROFLUMILAST COMPOSITIONS FOR THE TREATMENT OF COPD” (Forest Laboratories Holdings Ltd., priority 2012, published 2015).

Legend:
Format in all cases: cell-based, human
intracellular ROS = experiment: Intracellular reactive oxygen species (ROS) by flow cytometry in whole blood neutrophils from COPD patients; conditions: fMLP 1 μM or CSE 5%, 1 h, NAC 1 mM
Description: Intracellular reactive oxygen species (ROS) were measured by a flow cytometry assay using 2′,7′-dichlorodihydrofluorescein diacetate (H2DCF-DA, Molecular Probes, UK) as previously outlined (Milara et al., 2010). H2DCF-DA was added for 15 min before stimulus to a final concentration of 5 μM to measure intracellular ROS. The bacterial peptide fMLP was added as stimulus at 1 μM […] to generate intracellular ROS (Elbim et al., 2001). In other experiments, to reproduce in vivo conditions, CSE 5% was added to generate intracellular ROS. Intracellular ROS was measured using fresh whole blood from COPD patients. Blood neutrophils were selected using CD16-Alexa Fluor 647 antibody (molecular probes, UK) as neutrophil marker, and CD14-PerCEP-Cy5.5 mouse antihuman (molecular probes, UK) as monocyte marker in an Epics Profile II flow cytometer. A total of 1 ml of whole blood was pre-incubated at 37° C. for 30 min with RNO ([…] (1 mM) and H2DCF-DA followed by fMLP 1 μM or CSE 5% stimulation for another 1 h. Then erythrocytes were lysed using a commercial erythrocyte lysis buffer (Biolegend, UK) for 10 min. Fluorescence intensity was measured in the polymorphonuclear region of whole blood in an Epics Profile II flow cytometer. Results were expressed as DCF fluorescence in relative fluorescence units (RFU).
To this end, whole blood was stimulated with the bacterial peptide fMLP 1 μM or with CSE 5% in presence or absence of RNO or NAC for 1 h.

GM-CSF release = experiment: LPS-induced GM-CSF release in isolated peripheral blood neutrophils (LUMINEX); conditions: LPS (1 μg/ml), 6 h
Description: Neutrophils and monocytes were isolated from peripheral venous blood by standard laboratory procedures. In brief, peripheral venous blood was mixed with dextran 500 at 3% (in 0.9% saline) in a proportion of 2:1. This mixture was incubated at room temperature for 30 min until erythrocytes were sedimented. […] The two phases generated were centrifuged at 150 g, 4° C. for 30 min. Thus, the interface was collected to isolate monocytes, and the pellet obtained (which is consisted a mixture of neutrophils and low proportion of residual erythrocytes and traces of eosinophils and basophils) was resuspended in an erythrocyte lysis buffer (Biolegend, UK) for 5 min in ice. Cell suspension was washed two times with phosphate buffer (PBS).
Peripheral neutrophil cell suspension was adjusted to 500×10^3 cells per well in 24-well plates and incubated in RPMI culture medium for 1 h into the incubator at 37° C., 5% CO2. […] Both the stimulus and drug were remained together for 6 h. Supernatants were collected and centrifuged at 120 g for 5 min, and the free-cell supernatant was used to measure IL-8, MMP-9, IL-1β, GM-CSF and CCL-5.
IL-8 was determined by using commercially available enzyme-linked immunosorbent assay kit for IL-8 (R&D Systems, UK) according to the manufacturer's protocol. MMP-9, IL-1β, GM-CSF and CCL-5 were measured by LUMINEX technology according to the manufacturer's protocol.
Data were presented as mean±SEM. IC50 values were calculated for each drug and their combinations. Statistical analysis of results was carried out by analysis of variance (ANOVA) followed by Bonferroni test, by Student's t test, or by non-parametric tests as appropriate (GraphPad Software Inc, San Diego, Calif., USA). Significance was accepted when P<0.05. For clinical correlations of lung function and gene expression from neutrophils the non-parametric Spearman correlation analysis was carried out.

MKP1 = experiment: Real time RT-PCR of MKP1 mRNA in CSE-stimulated neutrophils from COPD patients; conditions: RNO 1 nM and 1 μM, DEX 1 μM, RNO 1 nM plus DEX 1 μM, NAC 1 mM for 1 h, then CSE 5% 6 h
Description: Neutrophils and monocytes were isolated from peripheral venous blood by standard laboratory procedures. In brief, peripheral venous blood was mixed with dextran 500 at 3% (in 0.9% saline) in a proportion of 2:1. This mixture was incubated at room temperature for 30 min until erythrocytes were sedimented. The upper phase was carefully collected and added on Ficoll-Paque Histopaque 1077 (Amershan Pharmacia Biotech, Barcelona, Spain) density gradient in a proportion of 3:1. The two phases generated were centrifuged at 150 g, 4° C. for 30 min. […]
CSE was prepared as previously outlined (Milara et al.; Ortiz et al.). […] The quality of the prepared CSE solution was assessed based on the absorbance at 320 nm, which is the specific absorption wavelength of peroxynitrite. Stock solutions with an absorbance value of 3.0±0.1 were used. […]
Total RNA was obtained from isolated neutrophils under basal conditions or after different drug and stimulation periods defined above by using TriPure® Isolation Reagent (Roche, Indianapolis, USA). […] Relative quantification of these transcripts was determined with the 2^−ΔΔCt method using glyceraldehyde phosphate dehydrogenase (GAPDH) as endogenous control (Applied Biosystems; 4352339E) and normalized to control group as previously described (Milara et al., 2009).
Then, mRNA was isolated and quantified for different genes.

O=C(Nc1c(Cl)c[n+]([O-])cc1Cl)c1ccc(OC(F)F)c(OCC2CC2)c1 [RNO, roflumilast N-oxide]
effect on ROS generation in neutrophils (intracellular ROS): dose-dependently inhibited
effect on ROS generation in neutrophils (intracellular ROS; listed as Roflumilast N-oxide): inhibits
-log IC50, inhibition of GM-CSF release (GM-CSF release; neutrophils from COPD patients): 8.10 ± 0.22
Maximal % Inhibition of GM-CSF release (GM-CSF release; neutrophils from COPD patients): 86.6 ± 8.04%
-log IC50, inhibition of GM-CSF release (GM-CSF release; neutrophils from HEALTHY): 8.25 ± 0.21
Maximal % Inhibition of GM-CSF release (GM-CSF release; neutrophils from HEALTHY): 78.87 ± 6.57%
effect on CSE-induced down-regulation of MKP1 mRNA expression (MKP1): reversed the effect of CSE
